Experimental data published in patent US9284322B2, “Nicotinic receptor compounds” (priority 2010, dated 2016).
Counter-ions that a name gives are not always drawn. Like-named read-outs stand apart in the source and are kept apart here.

Columns and labels:
[1] = biological target: heteromeric nAChRs containing alpha and beta subunits (αβ; alpha4 beta2 predominant) (Rattus norvegicus, UniProt P09483+P12390); assay type: binding; details: read-out: αβ [3H]Epibatidine (Ki)
Method: The alpha4 beta2 subtype is the predominant nAChR present in brain tissue used in this assay.
Adult male rat cerebral cortices (Pelfreeze Biological, Rogers, Ark.) were homogenized in 39 volumes of ice-cold 50 mM Tris buffer (pH 7.4 at 4° C.) containing 120 mM NaCl, 5 mM KCl, 2 mM CaCl2, and 1 mM MgCl2 and sedimented at 37,000 g for 10 min at 4° C. The supernatant was discarded, the pellet resuspended in the original volume of buffer, and the wash procedure repeated twice more. After the last centrifugation, the pellet was resuspended in 1/10 its original homogenization volume and stored at −80° C. until needed. […] After a 4-h incubation period at room temperature, the samples were vacuum-filtered over GF/B filter papers presoaked in 0.03% polyethylenimine using a Brandel 48-well harvester and washed with 6 mL of ice-cold buffer. The amount of radioactivity trapped on the filter was determined by standard liquid scintillation techniques in a TriCarb 2200 scintillation counter (Packard Instruments, Meriden, Conn.) at approximately 50% efficiency. The binding data were fit using the nonlinear regression analysis routines in Prism (Graphpad, San Diego, Calif.). The Ki values for the test compounds were calculated from their respective IC50 values using the Cheng-Prusoff equation.

[2] = biological target: homomeric nAChRs containing the alpha7 subunit (α7) (Rattus norvegicus (Rat), UniProt Q05941); assay: biochemical; assay type: binding
mice [3] = assay: animal or person; assay type: in vivo, mouse; details: for Tail Flick, % effect at dose (ED50 column): @ 10 mg/kg; for Tail Flick, % effect at dose (ED50 column) / ED50 Tail Flick: mice, s.c.; for ED50 Tail Flick: tested 5 min after injection; for ED50: Mus musculus, sc, 5 min, read-out: ED50 Tail Flick
Method: (§1) Antinociception was assessed by the tail-flick method of F. E. D'Amour and D. L. Smith (J. Pharmacol. Exp. Ther. 1941, 72, 74-79). A control response (2-4 sec) was determined for each mouse before treatment, and a test latency was determined after drug administration. In order to minimize tissue damage, a maximum latency of 10 sec was imposed. Antinociceptive response was calculated as percent maximum possible effect (% MPE), where % MPE=[(test−control)/(10−control)]×100. Groups of eight to twelve animals were used for each dose and for each treatment. […] Eight to twelve mice were treated per dose and a minimum of four doses were performed for dose-response curve determination.

mice [4] = assay: animal or person; assay type: in vivo, mouse; details: for Hot Plate, % effect at dose (ED50 column): @ 10 mg/kg; for Hot Plate, % effect at dose (ED50 column) / ED50 Hot Plate: mice, s.c.; for ED50 Hot Plate: tested 5 min after injection; for ED50: Mus musculus, sc, 5 min, read-out: ED50 Hot Plate
Method: (§2) Mice were placed into a 10 cm wide glass cylinder on a hot plate (Thermojust Apparatus) maintained at 55.0° C. Two control latencies at least […] apart were determined for each mouse. The normal latency (reaction time) was 8 to 12 sec. Antinociceptive response was calculated as percent maximum possible effect (% MPE), where % MPE=[(test−control)/40−control)×100]. The reaction time was scored when the animal jumped or licked its paws.

mice [5] = assay: animal or person; assay type: in vivo, mouse; details: for ED50: Mus musculus, sc, 0.5 h, read-out: ED50 Hypothermia
Method: Rectal temperature was measured by a thermistor probe (inserted 24 mm) and digital thermometer (Yellow Springs Instrument Co., Yellow Springs, Ohio). […] The difference in rectal temperature before and after treatment was calculated for each mouse. The ambient temperature of the laboratory varied from 21-24° C. from day to day.

mice [6] = assay: animal or person; assay type: in vivo, mouse; details: for ED50: Mus musculus, sc, read-out: ED50 Spontaneous Activity
Method: (§3) Interruptions of the photocell beams (two banks of eight cells each) were then recorded for the next 10 min. Data were expressed as number of photocell interruptions.

mice [7] = assay type: in vivo, mouse; details: for AD50 Tail Flick / Tail Flick, % effect at dose: mice; for AD50 Tail Flick: antagonist test; for Tail Flick, % effect at dose: @ 100 μg/kg
Method: as §1
(§4) Table 6 provides data for a number of compounds of the invention that were tested according to the assays described above.

mice [8] = assay type: in vivo, mouse; details: for AD50 Hot Plate: antagonist test
Method: as §2, with “The normal latency (reaction time) was 8 to 12 sec.” left out
as §4

mice [9] = assay: Functional agonist tests (nAChR animal assays); details: mouse, in vivo
Method: as §1
as §2, with “The normal latency (reaction time) was 8 to 12 sec.” left out
as §3
Rectal temperature was measured by a thermistor probe (inserted 24 mm) and digital thermometer (Yellow Springs Instrument Co., Yellow Springs, Ohio). […]

[10] = rat cerebral cortex homogenate, 40-50 pM [125I]MLA, read-out: α7 [125I]iodoMLA (Ki)
[11] = mice, s.c., rectal temperature 30 min after injection
[12] = mice, s.c., 5 min after administration, recorded for 10 min

Sequence of homomeric nAChRs containing the alpha7 subunit (α7) (Q05941 23-502 limits assumed): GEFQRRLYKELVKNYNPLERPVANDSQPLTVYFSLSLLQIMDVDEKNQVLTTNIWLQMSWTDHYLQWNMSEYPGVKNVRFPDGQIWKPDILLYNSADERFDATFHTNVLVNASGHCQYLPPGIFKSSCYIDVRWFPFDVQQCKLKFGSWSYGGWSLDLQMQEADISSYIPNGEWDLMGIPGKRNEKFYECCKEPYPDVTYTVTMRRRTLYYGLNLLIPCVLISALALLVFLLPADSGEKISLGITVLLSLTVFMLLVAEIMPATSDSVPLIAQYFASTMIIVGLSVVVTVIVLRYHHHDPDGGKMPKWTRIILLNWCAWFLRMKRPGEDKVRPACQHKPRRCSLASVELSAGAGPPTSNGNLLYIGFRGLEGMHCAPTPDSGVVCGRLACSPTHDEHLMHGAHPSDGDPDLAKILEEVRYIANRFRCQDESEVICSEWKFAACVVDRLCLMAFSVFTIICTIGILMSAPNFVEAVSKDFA

SMILES	Ki [1] [nM]	Ki [2, 10] [nM]	Tail Flick, % effect at dose (ED50 column) (mice [3]) [% @ 10]	Hot Plate, % effect at dose (ED50 column) (mice [4]) [% @ 10]	ED50 Hypothermia (mice [5]; [11])	ED50 Spontaneous Activity (mice [6]; [12])	AD50 Tail Flick (mice [7])	other results
Nc1ccc(-c2cc(C3CC4CCC3N4)cnc2F)cn1 (centres unmarked)	0.25 ± 0.033	1470 ± 203	5	8	2.8 (2-3.8) mg/kg	1.84 (0.5-6.3) mg/kg	30 (3-35) μg/kg	Hot Plate, % effect at dose (mice [8]; @ 10 μg/kg): 50% @ 10
COc1ccc(-c2cc(C3CC4CCC3N4)cnc2F)cn1 (centres unmarked)	0.13 ± 0.027	524 ± 110	–	–	0.77 (0.51-1.2) mg/kg	0.53 (0.19-1.1) mg/kg	21 (3-125) μg/kg	ED50 Tail Flick (mice [3]): 4.22 (3-5.3) mg/kg; ED50 Hot Plate (mice [4]): 1.72 (0.9-3.4) mg/kg; Hot Plate, % effect at dose (mice [8]; @ 100 μg/kg): 0% @ 100
COc1cc(-c2cncc(C3CC4CCC3N4)c2)ccn1 (centres unmarked) (as salt: fumarate)	–	–	–	–	–	–	–	melting point: 160 to 164 °C
CN1CCCC1c1cccnc1 (centres unmarked) [Nicotine, reference compound]	–	–	–	–	–	–	–	ED50 (mice [3]): 1.3 mg/kg; ED50 (mice [4]): 0.65 mg/kg; ED50 (mice [5]): 1 mg/kg; ED50 (mice [6]): 0.5 mg/kg
Fc1ncc(C2CC3CCC2N3)cc1-c1ccnc(Cl)c1 (centres unmarked)	1.18 ± 0.14	> 10000	11	19	2.74 (1.89-3.5) mg/kg	1.01 (0.27-3.7) mg/kg	320 (45-3262) μg/kg	AD50 Hot Plate (mice [8]): 1370 (180-1430) μg/kg
c1cnc2cc3c(cc2n1)[C@@H]1CNC[C@H]3C1 [varenicline, reference compound]	–	–	11	10	–	–	0.2 µg/kg	ED50 (mice [5]; [11]): 2.8 mg/kg; ED50 (mice [6]; [12]): 2.1 mg/kg; functional antagonism in the tail-flick test (in words) (mice [7]; mouse, in vivo): functional antagonists; AD50 Hot Plate (mice [8]): 470 µg/kg; activity in one or more of the functional agonist tests (in words) (mice [9]): partial agonists
Fc1ncc(C2CC3CCC2N3)cc1-c1cncnc1 (stereo not drawn) [F, 2-exo-2′-Fluoro-3′-(pyrimidin-5-yl)deschloroepibatidine fumarate]	–	–	–	–	–	–	0.24 µg/kg	Ki [2]: 1930 nM; ED50 (mice [3]): 2.15 mg/kg; ED50 (mice [4]): 1.2 mg/kg; ED50 (mice [5]): 0.25 mg/kg; ED50 (mice [6]): 0.15 mg/kg; Hot Plate, % effect at dose (mice [8]; @ 100 μg/kg): 33% @ 100
Fc1cc(-c2cncc(C3CC4CCC3N4)c2)ccn1 (centres unmarked) (as salt: fumarate)	–	–	–	–	–	–	–	melting point: 210 to 214 °C
Nc1cc(-c2cc(C3CC4CCC3N4)cnc2F)ccn1 (centres unmarked)	0.13 ± 0.005	719 ± 101	11	12	1.87 (0.1-3.5) mg/kg	0.61 (0.04-9.1) mg/kg	9 (0.4-19) μg/kg	Hot Plate, % effect at dose (mice [8]; @ 10,000 μg/kg): 10% @ 10,000
Fc1cc(-c2cc(C3CC4CCC3N4)cnc2F)ccn1 (centres unmarked)	0.067 ± 0.01	7300 ± 150	5	18	1.58 (0.97-2.1) mg/kg	0.17 (0.08-1.5) mg/kg	4 (0.1-70) μg/kg	AD50 Hot Plate (mice [8]): 117 (110-1100) μg/kg
COc1cc(-c2cc(C3CC4CCC3N4)cnc2F)ccn1 (centres unmarked)	0.04 ± 0.012	7900 ± 1080	–	–	–	–	–	–
Clc1ncc(C2CC3CCC2N3)cc1-c1cncnc1 (stereo not drawn) (as salt: fumarate) [Cl, 2-exo-2′-Chloro-3′-(pyrimidin-5-yl)deschloroepibatidine fumarate]	–	–	–	–	–	–	–	melting point: 199 to 203 °C
Fc1ncc(C2CC3CCC2N3)cc1-c1cncnc1 (stereo not drawn) (as salt: fumarate) [2-exo-2′-Fluoro-3′-(pyrimidin-5-yl)deschloroepibatidine fumarate]	–	–	–	–	–	–	–	melting point: 160 to 163 °C
Fc1ccc(-c2cc(C3CC4CCC3N4)cnc2F)cn1 (centres unmarked)	0.049 ± 0.02	4850 ± 1800	–	–	0.68 (0.52-1.1) mg/kg	0.38 (0.13-1.1) mg/kg	–	ED50 Tail Flick (mice [3]): 3.6 (2.7-4.7) mg/kg; ED50 Hot Plate (mice [4]): 3.27 (2.1-5.3) mg/kg; Tail Flick, % effect at dose (mice [7]): 1% @ 100; Hot Plate, % effect at dose (mice [8]; @ 100 μg/kg): 1% @ 100
c1ncc(-c2cncc(C3CC4CCC3N4)c2)cn1 (stereo not drawn) (as salt: fumarate) [H, 2-exo-3′-(Pyrimidin-5-yl)deschloroepibatidine fumarate]	–	–	–	–	–	–	–	melting point: 172 to 176 °C
Clc1ccc(C2CC3CCC2N3)cn1 (single isomer, unassigned; (-)) [(−)-epibatidine, reference compound]	–	–	–	–	–	–	–	ED50 (mice [4]): 0.004 mg/kg
Fc1ncc(C2CC3CCC2N3)cc1-c1cccnc1 (centres unmarked)	0.35 ± 0.038	5500 ± 1420	–	–	3.7 (2.9-4.5) mg/kg	0.69 (0.4-12.8) mg/kg	3 (0.5-24) μg/kg	ED50 Tail Flick (mice [3]): 4.9 (3.6-6.7) mg/kg; ED50 Hot Plate (mice [4]): 5 (3.7-6.7) mg/kg; Hot Plate, % effect at dose (mice [8]; @ 1000 μg/kg): 10% @ 1000
Fc1ncc(C2CC3CCC2N3)cc1-c1ccncc1 (centres unmarked)	0.12 ± 0.03	9700 ± 2400	13	40	1.69 (1.1-2.6) mg/kg	0.38 (0.2-2.7) mg/kg	12 (10-172) μg/kg	AD50 Hot Plate (mice [8]): 290 (19-991) μg/kg
c1ncc(-c2cncc(C3CC4CCC3N4)c2)cn1 (stereo not drawn) [H, 2-exo-3′-(Pyrimidin-5-yl)deschloroepibatidine fumarate]	–	–	–	–	–	–	–	Ki [2]: 32.5 ± 1.3 nM; ED50 (mice [3]): 1.5 mg/kg; ED50 (mice [4]): 1.63 mg/kg; ED50 (mice [5]): 0.6 mg/kg; ED50 (mice [6]): 0.32 mg/kg; Tail Flick, % effect at dose (mice [7]): 15% @ 100; Hot Plate, % effect at dose (mice [8]; @ 100 μg/kg): 0% @ 100
Fc1ncc(C2CC3CCC2N3)cc1-c1ccc(Cl)nc1 (centres unmarked)	0.063 ± 0.08	6600 ± 731	10	27	3.11 (1.5-5.1) mg/kg	1.58 (0.5-4.4) mg/kg	9 (2-38) μg/kg	AD50 Hot Plate (mice [8]): 2001 (297-3610) μg/kg
Clc1ncc(C2CC3CCC2N3)cc1-c1cncnc1 (stereo not drawn) [Cl, 2-exo-2′-Chloro-3′-(pyrimidin-5-yl)deschloroepibatidine fumarate]	–	–	–	–	–	–	–	Ki [2]: 170 ± 64 nM; ED50 (mice [3]): 0.28 mg/kg; ED50 (mice [4]): 0.25 mg/kg; ED50 (mice [5]): 0.03 mg/kg; ED50 (mice [6]): 0.027 mg/kg; Tail Flick, % effect at dose (mice [7]): 5% @ 100; Hot Plate, % effect at dose (mice [8]; @ 100 μg/kg): 2% @ 100
